Measured values as given in patent publication US12052991B2, “Substituted pyridinyloxybenzenes and salts thereof and use thereof as herbicidal agents” (Bayer Aktiengesellschaft, priority 2018, dated 2024).

Tests used:
Assay type in all cases: in vivo
[1] = test system: Abutilon theophrasti (ABUTH); test: Herbicidal post-emergence action (Table B5); details: rated visually after about 3 weeks, 100% = plants have died, 0% = like control plants
Experimental: (§1) Seeds of mono- and dicotyledonous weed plants were placed in plastic pots in sandy loam soil (doubly sown with in each case one species of mono- or dicotyledonous weed plants per pot), covered with soil and cultivated in a greenhouse under controlled growth conditions. 2 to 3 weeks after sowing, the test plants were treated at the one-leaf stage. The compounds of the invention, formulated in the form of wettable powders (WP) or as emulsion concentrates (EC), were applied onto the green parts of the plants as aqueous suspension or emulsion with addition of 0.5% additive at a water application rate of 600 liters per hectare (converted). After the test plants had been kept in the greenhouse under optimum growth conditions for about 3 weeks, the activity of the preparations was rated visually in comparison to untreated controls. For example, 100% activity=the plants have died, 0% activity=like control plants. Tables B1 to B12 below show the effects of selected compounds of the general formula (I) according to Table 1 on various harmful plants and an application rate corresponding to 1280 or 320 g/ha, which were obtained by the experimental procedure mentioned above.

Stellaria media (STEME) [2] = test: Herbicidal post-emergence action (Table B8); details: visual rating about 3 weeks after treatment, 100% = plants have died, 0% = like control plants
Experimental: as §1

[3] = test system: Digitaria sanguinalis (DIGSA); test: Herbicidal post-emergence action (Table B10); details: dosage 1280 g/ha; visual rating about 3 weeks after treatment; 100% = plants have died, 0% = like control plants
Experimental: as §1

Poa annua (POAAN) [4] = test: Herbicidal pre-emergence action, test C (Table C3); details: dosage 1280 g/ha; visual scoring after about 3 weeks; 100% = plants have died, 0% = like control plants
Source text: (§2) Seeds of mono- and dicotyledonous weed plants were placed in plastic pots in sandy loam soil (doubly sown with one species each of mono- or dicotyledonous weed plants per pot) and covered with soil. The compounds of the invention, formulated in the form of wettable powders (WP) or as emulsion concentrates (EC), were then applied onto the surface of the covering soil as aqueous suspension or emulsion with addition of 0.5% additive at a water application rate of 600 liters per hectare (converted). After the treatment, the pots were placed in a greenhouse and kept under good growth conditions for the test plants. After about 3 weeks, the effect of the preparations was scored visually in comparison with untreated controls as percentages. For example, 100% activity=the plants have died, 0% activity=like control plants. Tables C1 to C12 below show the effects of selected compounds of the general formula (I) according to Table 1 on various harmful plants and an application rate corresponding to 1280 or 320 g/ha, which were obtained by the experimental procedure mentioned above.

Setaria viridis (SETVI) = test: Herbicidal pre-emergence action, test C (Table C4); details: visual scoring after about 3 weeks, 100% = plants have died, 0% = like control plants
Source text: as §2

[5] = test system: Abutilon theophrasti (ABUTH); test: Herbicidal pre-emergence action, test C (Table C5); details: visual scoring after about 3 weeks, 100% = plants have died, 0% = like control plants
Source text: as §2

[6] = test system: Amaranthus retroflexus (AMARE); test: Herbicidal pre-emergence action, test C (Table C6); details: visual scoring after about 3 weeks, 100% = plants have died, 0% = like control plants
Source text: as §2

[7] = test system: Matricaria inodora (MATIN); test: Herbicidal pre-emergence action, test C (Table C7); details: dosage 1280 g/ha; visual scoring after about 3 weeks; 100% = plants have died, 0% = like control plants
Source text: as §2

Stellaria media (STEME) [8] = test: Herbicidal pre-emergence action, test C (Table C8); details: visual scoring after about 3 weeks, 100% = plants have died, 0% = like control plants
Source text: as §2

Veronica persica (VERPE) [9] = test: Herbicidal pre-emergence action, test C (Table C12); details: dosage 1280 g/ha, visual scoring vs untreated controls
Source text: as §2

[10] = test system: harmful plants ABUTH, AMARE, ECHCG, LOLRI, MATIN, POAAN, SETVI, STEME, ALOMY, DIGSA, KCHSC and VERPE; test: Herbicidal post-emergence action, summary of Tables B1-B12; details: application rate of 1280 or 320 g of active ingredient per hectare; summary in words
Experimental: as §1, with “controls.” for “controls. For example, 100% activity=the plants have died, 0% activity=like control plants. Tables B1 to B12 below show the effects of selected compounds of the general formula (I) according to Table 1 on various harmful plants and an application rate corresponding to 1280 or 320 g/ha, which were obtained by the experimental procedure mentioned above.”
(§3) For example, 100% activity=the plants have died, 0% activity=like control plants.
Tables B1 to B12 below show the effects of selected compounds of the general formula (I) according to Table 1 on various harmful plants and an application rate corresponding to 1280 or 320 g/ha, which were obtained by the experimental procedure mentioned above.
As the results of Tables B1-B12 show, compounds no.

[11] = test system: harmful plants ABUTH, AMARE, ECHCG, LOLRI, MATIN, POAAN, SETVI, STEME, ALOMY, DIGSA, KCHSC and VERPE; test: Herbicidal pre-emergence action (test C), summary of Tables C1-C12; details: application rate of 1280 or 320 g of active ingredient per hectare; summary in words
Source text: as §2, with “percentages.” for “percentages. For example, 100% activity=the plants have died, 0% activity=like control plants. Tables C1 to C12 below show the effects of selected compounds of the general formula (I) according to Table 1 on various harmful plants and an application rate corresponding to 1280 or 320 g/ha, which were obtained by the experimental procedure mentioned above.”
as §3
Tables C1 to C12 below show the effects of selected compounds of the general formula (I) according to Table 1 on various harmful plants and an application rate corresponding to 1280 or 320 g/ha, which were obtained by the experimental procedure mentioned above.
As the results of Tables C1-C12 show, compounds no.

Poa annua (POAAN) [12] = test: Herbicidal post-emergence action (Table B3); details: rated visually after about 3 weeks, 100% = plants have died, 0% = like control plants
Experimental: as §1

[13] = test system: Amaranthus retroflexus (AMARE); test: Herbicidal post-emergence action (Table B6); details: visual rating about 3 weeks after treatment, 100% = plants have died, 0% = like control plants
Experimental: as §1

[14] = test system: Alopecurus myosuroides (ALOMY); test: Herbicidal post-emergence action (Table B9); details: rated visually after about 3 weeks, 100% = plants have died, 0% = like control plants
Experimental: as §1

Bassia scoparia (KCHSC) = test: Herbicidal post-emergence action (Table B11); details: dosage 1280 g/ha; visual rating about 3 weeks after treatment; 100% = plants have died, 0% = like control plants
Experimental: as §1

Veronica persica (VERPE) [15] = test: Herbicidal post-emergence action (Table B12); details: visual rating about 3 weeks after treatment, 100% = plants have died, 0% = like control plants
Experimental: as §1

[16] = test system: Digitaria sanguinalis (DIGSA); test: Herbicidal pre-emergence action, test C (Table C10); details: dosage 1280 g/ha; visual scoring after about 3 weeks; 100% = plants have died, 0% = like control plants
Source text: as §2

[17] = test system: Alopecurus myosuroides (ALOMY); test: Herbicidal pre-emergence action, test C (Table C9); details: dosage 1280 g/ha; visual scoring after about 3 weeks; 100% = plants have died, 0% = like control plants
Source text: as §2

Compound | Post-emergence action against Abutilon theophrasti (ABUTH) ([1]; 1280 g/ha) [%] | Post-emergence action against Stellaria media (STEME) (Stellaria media (STEME) [2]; dosage 1280 g/ha) [%] | Post-emergence action against Digitaria sanguinalis (DIGSA) [3] [%] | Pre-emergence action against Poa annua (POAAN) (Poa annua (POAAN) [4]) [%] | Pre-emergence action against Setaria viridis (SETVI) (Setaria viridis (SETVI); dosage 1280 g/ha) [%] | Pre-emergence action against Abutilon theophrasti (ABUTH) ([5]; dosage 1280 g/ha) [%] | Pre-emergence action against Amaranthus retroflexus (AMARE) ([6]; dosage 1280 g/ha) [%] | Pre-emergence action against Matricaria inodora (MATIN) [7] [%] | Pre-emergence action against Stellaria media (STEME) (Stellaria media (STEME) [8]; dosage 320 g/ha) [%] | Pre-emergence action against Stellaria media (STEME) (Stellaria media (STEME) [8]; dosage 1280 g/ha) [%] | Pre-emergence action against Veronica persica (VERPE) (Veronica persica (VERPE) [9]) [%] | herbicidal activity against the harmful plants of Tables B1-B12 in post-emergence treatment [10] | herbicidal activity against the harmful plants of Tables C1-C12 in pre-emergence treatment [11] | Post-emergence action against Poa annua (POAAN) (Poa annua (POAAN) [12]; 320 g/ha) [%] | Post-emergence action against Poa annua (POAAN) (Poa annua (POAAN) [12]; 1280 g/ha) [%] | Post-emergence action against Amaranthus retroflexus (AMARE) ([13]; dosage 1280 g/ha) [%] | Post-emergence action against Stellaria media (STEME) (Stellaria media (STEME) [2]; dosage 320 g/ha) [%] | Post-emergence action against Veronica persica (VERPE) (Veronica persica (VERPE) [15]; dosage 320 g/ha) [%] | Post-emergence action against Veronica persica (VERPE) (Veronica persica (VERPE) [15]; dosage 1280 g/ha) [%] | Pre-emergence action against Digitaria sanguinalis (DIGSA) [16] [%] | other results
Cc1ccc(-c2cc(C(F)F)no2)c(Oc2ccccn2)c1 [Example 1-25] | 90 | 100 | 100 | 90 | 100 | 100 | 100 | 90 | 90 | 100 | 90 | very good herbicidal activity | very good herbicidal activity |  |  |  |  |  |  |  | Pre-emergence action against Setaria viridis (SETVI) (Setaria viridis (SETVI); dosage 320 g/ha): 100%; Pre-emergence action against Amaranthus retroflexus (AMARE) ([6]; dosage 320 g/ha): 100%
CCc1ccc(Oc2cccc(CC)c2-c2cc(C(F)F)no2)nc1 [Example 1-60] | 90 | 100 | 100 | 100 | 100 |  | 100 | 100 | 100 | 100 | 100 | very good herbicidal activity | very good herbicidal activity | 90 | 100 | 100 | 100 | 100 | 100 | 100 | Post-emergence action against Amaranthus retroflexus (AMARE) ([13]; dosage 320 g/ha): 100%; Post-emergence action against Alopecurus myosuroides (ALOMY) ([14]; 320 g/ha): 100%; Post-emergence action against Alopecurus myosuroides (ALOMY) ([14]; 1280 g/ha): 100%; Post-emergence action against Bassia scoparia (KCHSC) (Bassia scoparia (KCHSC)): 100%
FC(F)(F)c1ccc(-c2ccccc2Oc2ccc(Cl)cn2)nc1 [Example 1-67] | 100 | 100 | 90 | 100 | 100 |  | 100 |  | 100 | 100 | 100 | very good herbicidal activity | very good herbicidal activity | 100 | 100 | 100 | 100 | 100 | 100 | 100 | Post-emergence action against Abutilon theophrasti (ABUTH) ([1]; 320 g/ha): 90%; Post-emergence action against Alopecurus myosuroides (ALOMY) ([14]; 1280 g/ha): 90%; Post-emergence action against Bassia scoparia (KCHSC) (Bassia scoparia (KCHSC)): 90%
Cc1ccnc(-c2ccccc2Oc2ccc(Cl)cn2)c1 [Example 1-81] | 90 | 100 |  | 100 |  | 100 | 100 | 90 |  | 100 | 100 | very good herbicidal activity | very good herbicidal activity |  | 90 | 100 |  | 100 | 100 | 100 | Pre-emergence action against Abutilon theophrasti (ABUTH) ([5]; dosage 320 g/ha): 100%; Pre-emergence action against Alopecurus myosuroides (ALOMY) [17]: 90%
